# Experimental data reported in patent US20250154126A1, “CRYSTALLINE FORM OF SULFUR-CONTAINING ISOINDOLINE DERIVATIVE” (JIANGSU HENGRUI PHARMACEUTICALS CO., LTD., priority 2022, published 2025).
# Legend:
# Format in all cases: physicochemical
# [1] = Hygroscopicity study of crystal forms (dynamic vapour sorption, 25° C.); details: for Crystal form after hygroscopicity test: two cycles
# From the text: According to the “9103 Guideline for Hygroscopicity for Pharmaceuticals” in Part IV of the 2015 edition of the Chinese Pharmacopoeia, descriptions of hygroscopic characteristics and definitions of hygroscopic weight gain are as follows; • Deliquescent: Absorbs sufficient moisture to form a liquid; • Extremely hygroscopic: Hygroscopic weight gain is no less than 15%; • Hygroscopic: Hygroscopic weight gain is less than 15% but no less than 2%; • Slightly hygroscopic: Hygroscopic weight gain is less than 2% but no less than 0.2%; • Non-hygroscopic or nearly non-hygroscopic: Hygroscopic weight gain is less than 0.2%.
# Compound of Formula (I) (Oct. 15, 2021, Nanjing) 03881 Using the Surface Measurement Systems advantage 2, at a temperature of 25° C., and starting at a humidity of 50%, the humidity range was examined from […] to 95%, with increments of 10%. The criterion for evaluation was that the mass change dM/dT at each gradient was less than 0.002%, TMAX was 360 min, and the process was cycled twice.
# [2] = Long-term/accelerated stability of crystal forms (25° C. 60% RH and 40° C. 75% RH); details: for physical and chemical stability, long-term accelerated conditions: 25° C. 60% RH and 40° C. 75% RH, six months
# Description: The crystal forms D, E, Q, and U of the compound of formula (I) were respectively placed under conditions of 25° C. with 60% RH and 40° C. with 75% RH to evaluate their stability.
# [3] = Influencing factor stability of crystal forms (light, high temperature, high humidity, 30 days); details: for change in purity under 60° C. and light: 60° C. and light (4500 Lux); for change in purity under 60° C. and light / physicochemical stability under high humidity: open; for physicochemical stability under high humidity: high humidity conditions of 75% and 92.5%; for crystal form after influencing factor experiments: light, high temperature, high humidity
# Description: Each crystal form was spread out in an open exposure setup, and the stability of the samples under conditions of light (4500 Lux), high temperature (40° C., 60° C.), and high humidity (RH 75 RH 92.5%) was examined separately. The sampling inspection period was 30 days.
# [4] = 92.5% RH, 14 days, open exposure
# [5] = 92.5% RH, 30 days, open exposure
# [6] = light 4500 Lux, 7 days, open exposure
# [7] = light 4500 Lux, 14 days, open exposure
# [8] = light 4500 Lux, 30 days, open exposure
# [9] = 92.5% RH, 7 days, open exposure
compound,measurement,setting,value
"N#Cc1ccc(N2CCC(Sc3ccc(COc4cccc5c4CN([C@H]4CCC(=O)NC4=O)C5=O)cn3)CC2)c(F)c1 [Crystal form Q, (S)-4-(4-((5-(((2-(2,6-dioxopiperidin-3-yl)-1-oxoisoindolin-4-yl)oxy)methyl)pyridin-2-yl)thio)piperidin-1-yl)-3-fluorobenzonitrile]",Hygroscopic weight change 0.0% RH-95.0% RH,[1],0.67%
same,Hygroscopic weight change 20% RH-80% RH,[1],0.24%
same,Hygroscopicity class (20% RH-80% RH),[1],(slightly hygroscopic)
same,Crystal form after hygroscopicity test,[1],Untransformed
same,"physical and chemical stability, long-term accelerated conditions",[2],good physical and chemical stability
same,Purity % 1 month,"[2]; 25° C., 60% RH",99.5%
same,Purity % 2 months,"[2]; 25° C., 60% RH",99.5%
same,Purity % 3 months,"[2]; 25° C., 60% RH",99.5%
same,Purity % 1 month,"[2]; 40° C., 75% RH",99.5%
same,Purity % 2 months,"[2]; 40° C., 75% RH",99.4%
same,Purity % 3 months,"[2]; 40° C., 75% RH",99.4%
same,Purity % 6 months,"[2]; 40° C., 75% RH",99.1%
same,Purity % Onset,[2],99.6%
same,Color and character,"[3]; 40° C., 7 days, open exposure",White solid
same,Purity %,"[3]; 40° C., 7 days, open exposure",99.5%
same,Color and character,"[3]; 40° C., 14 days, open exposure",White solid
same,Purity %,"[3]; 40° C., 14 days, open exposure, listed as Free crystal form Q",99.4%
same,Color and character,"[3]; 40° C., 30 days, open exposure",White solid
same,Purity %,"[3]; 40° C., 30 days, open exposure, listed as Free crystal form Q",99.1%
same,change in purity under 60° C. and light,[3]; 30 days,slight decrease in purity
same,Color and character,"[3]; 60° C., 7 days, open exposure",White solid
same,Purity %,"[3]; 60° C., 7 days, open exposure, listed as Free crystal form Q",99.3%
same,Color and character,"[3]; 60° C., 14 days, open exposure",White solid
same,Purity %,"[3]; 60° C., 14 days, open exposure, listed as Free crystal form Q",98.9%
same,Color and character,"[3]; 60° C., 30 days, open exposure",White solid
same,Purity %,"[3]; 60° C., 30 days, open exposure, listed as Free crystal form Q",98.5%
same,Color and character,"[3]; 75% RH, 7 days, open exposure",White solid
same,Purity %,"[3]; 75% RH, 7 days, open exposure",99.6%
same,Color and character,"[3]; 75% RH, 14 days, open exposure",White solid
same,Purity %,"[3]; 75% RH, 14 days, open exposure, listed as Free crystal form Q",99.6%
same,Color and character,"[3]; 75% RH, 30 days, open exposure",White solid
same,Purity %,"[3]; 75% RH, 30 days, open exposure, listed as Free crystal form Q",99.6%
same,Color and character,[3]; [4],White solid
same,Purity %,"[3]; 92.5% RH, 14 days, open exposure, listed as Free crystal form Q",99.6%
same,Color and character,[3]; [5],White solid
same,Purity %,"[3]; 92.5% RH, 30 days, open exposure, listed as Free crystal form Q",99.5%
same,Color and character,"[3]; Onset, 0 days",White solid
same,Purity %,"[3]; Onset, 0 days, listed as Free crystal form Q",99.6%
same,physicochemical stability under high humidity,[3]; 30 days,good physicochemical stability
same,Color and character,[3]; [6],White solid
same,Purity %,"[3]; light 4500 Lux, 7 days, open exposure, listed as Free crystal form Q",99.5%
same,Color and character,[3]; [7],White solid
same,Purity %,"[3]; light 4500 Lux, 14 days, open exposure, listed as Free crystal form Q",98.8%
same,Color and character,[3]; [8],White solid
same,Purity %,"[3]; light 4500 Lux, 30 days, open exposure, listed as Free crystal form Q",93.9%
same,crystal form after influencing factor experiments,[3]; 30 days,remain unchanged
"N#Cc1ccc(N2CCC(Sc3ccc(COc4cccc5c4CN([C@H]4CCC(=O)NC4=O)C5=O)cn3)CC2)c(F)c1 [Crystal form U, (S)-4-(4-((5-(((2-(2,6-dioxopiperidin-3-yl)-1-oxoisoindolin-4-yl)oxy)methyl)pyridin-2-yl)thio)piperidin-1-yl)-3-fluorobenzonitrile]",Hygroscopic weight change 0.0% RH-95.0% RH,[1],2.06%
same,Hygroscopic weight change 20% RH-80% RH,[1],1.03%
same,Hygroscopicity class (20% RH-80% RH),[1],(slightly hygroscopic)
same,Crystal form after hygroscopicity test,[1],Untransformed
same,"physical and chemical stability, long-term accelerated conditions",[2],good physical and chemical stability
same,Purity % 1 month,"[2]; 25° C., 60% RH",99.7%
same,Purity % 2 months,"[2]; 25° C., 60% RH",99.6%
same,Purity % 3 months,"[2]; 25° C., 60% RH",99.6%
same,Purity % 1 month,"[2]; 40° C., 75% RH",99.7%
same,Purity % 2 months,"[2]; 40° C., 75% RH",99.6%
same,Purity % 3 months,"[2]; 40° C., 75% RH",99.6%
same,Purity % 6 months,"[2]; 40° C., 75% RH",99.5%
same,Purity % Onset,[2],99.7%
same,Color and character,"[3]; 40° C., 7 days, open exposure",White solid
same,Purity %,"[3]; 40° C., 7 days, open exposure",99.5%
same,Color and character,"[3]; 40° C., 14 days, open exposure",White solid
same,Purity %,"[3]; 40° C., 14 days, open exposure, listed as Free crystal form U",99.3%
same,Color and character,"[3]; 40° C., 30 days, open exposure",White solid
same,Purity %,"[3]; 40° C., 30 days, open exposure, listed as Free crystal form U",98.8%
same,change in purity under 60° C. and light,[3]; 30 days,slight decrease in purity
same,Color and character,"[3]; 60° C., 7 days, open exposure",White solid
same,Purity %,"[3]; 60° C., 7 days, open exposure, listed as Free crystal form U",98.9%
same,Color and character,"[3]; 60° C., 14 days, open exposure",White solid
same,Purity %,"[3]; 60° C., 14 days, open exposure, listed as Free crystal form U",98.5%
same,Color and character,"[3]; 60° C., 30 days, open exposure",White solid
same,Purity %,"[3]; 60° C., 30 days, open exposure, listed as Free crystal form U",97.5%
same,Color and character,"[3]; 75% RH, 7 days, open exposure",White solid
same,Purity %,"[3]; 75% RH, 7 days, open exposure",99.6%
same,Color and character,"[3]; 75% RH, 14 days, open exposure",White solid
same,Purity %,"[3]; 75% RH, 14 days, open exposure, listed as Free crystal form U",99.7%
same,Color and character,"[3]; 75% RH, 30 days, open exposure",White solid
same,Purity %,"[3]; 75% RH, 30 days, open exposure, listed as Free crystal form U",99.6%
same,Color and character,[3]; [9],White solid
same,Purity %,[3]; [9],99.7%
same,Color and character,[3]; [4],White solid
same,Purity %,"[3]; 92.5% RH, 14 days, open exposure, listed as Free crystal form U",99.7%
same,Color and character,[3]; [5],White solid
same,Purity %,"[3]; 92.5% RH, 30 days, open exposure, listed as Free crystal form U",99.6%
same,Color and character,"[3]; Onset, 0 days",White solid
same,Purity %,"[3]; Onset, 0 days, listed as Free crystal form U",99.7%
same,physicochemical stability under high humidity,[3]; 30 days,good physicochemical stability
same,Color and character,[3]; [6],White solid
same,Purity %,"[3]; light 4500 Lux, 7 days, open exposure, listed as Free crystal form U",99.3%
same,Color and character,[3]; [7],White solid
same,Purity %,"[3]; light 4500 Lux, 14 days, open exposure, listed as Free crystal form U",99.3%
same,Color and character,[3]; [8],White solid
same,Purity %,"[3]; light 4500 Lux, 30 days, open exposure, listed as Free crystal form U",98.8%
same,crystal form after influencing factor experiments,[3]; 30 days,remain unchanged
